Assay results: ChEMBL document CHEMBL1201862, “PubChem BioAssay data set” (2004)
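48-hour exposure; five concentrations; linearly interpolated endpoints. GI50 = concentration required for 50% inhibition of growth.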 Activity calls are given as the source filed them. Cut-off read from the data, not from the text of the source: active = GI50 up to about 1.1 µM and inactive = higher.

Assays:
Experiment in all cases: NCI-60 cell line screen, 48 h
SK-OV-3 = tested on: SK-OV-3
UACC-257 = tested on: UACC-257
IGROV-1 = tested on: IGROV-1
HCT-116 = tested on: HCT-116
CCRF-CEM = tested on: CCRF-CEM
UO-31 = tested on: UO-31
SK-MEL-5 = tested on: SK-MEL-5
SF-295 = tested on: SF-295
MDA-N = tested on: MDA-N
HT-29 = tested on: HT-29
NCI-H23 = tested on: NCI-H23
TK-10 = tested on: TK-10
ACHN = tested on: ACHN
KM12 = tested on: KM12
COLO 205 = tested on: COLO 205
LOX IMVI = tested on: LOX IMVI
MDA-MB-231 = tested on: MDA-MB-231
RPMI-8226 = tested on: RPMI-8226
RXF 393 = tested on: RXF 393
SF-539 = tested on: SF-539
HOP-92 = tested on: HOP-92
HL-60 = tested on: HL-60
786-0 = tested on: 786-0
NCI-H226 = tested on: NCI-H226
HCC 2998 = tested on: HCC 2998
A549 = tested on: A549
HCT-15 = tested on: HCT-15
SNB-75 = tested on: SNB-75
K562 = tested on: K562
SW-620 = tested on: SW-620
SNB-19 = tested on: SNB-19
NCI/ADR-RES = tested on: NCI/ADR-RES
SK-MEL-2 = tested on: SK-MEL-2
OVCAR-5 = tested on: OVCAR-5
OVCAR-8 = tested on: OVCAR-8
MDA-MB-435 = tested on: MDA-MB-435
Malme-3M = tested on: Malme-3M
NCI-H522 = tested on: NCI-H522
M14 = tested on: M14
Hs-578T = tested on: Hs-578T
MOLT-4 = tested on: MOLT-4
CAKI-1 = tested on: CAKI-1
SR = tested on: SR
A498 = tested on: A498
SF-268 = tested on: SF-268
SN12C = tested on: SN12C
U-251 = tested on: U-251
T47D = tested on: T47D
EKVX = tested on: EKVX
OVCAR-3 = tested on: OVCAR-3
UACC-62 = tested on: UACC-62
NCI-H460 = tested on: NCI-H460
OVCAR-4 = tested on: OVCAR-4
DU-145 = tested on: DU-145
SK-MEL-28 = tested on: SK-MEL-28
MCF7 = tested on: MCF7
HOP-62 = tested on: HOP-62

`O=c1[nH]nc(-c2ccccc2)n1Nc1ccccc1` was tested, and the GI50 (SK-OV-3) was > 100 µM (inactive), the GI50 (UACC-257) was > 100 µM (inactive) and the GI50 (IGROV-1) was > 100 µM (inactive). For the same compound, the GI50 (HCT-116) was > 100 µM (inactive), the GI50 (CCRF-CEM) was > 100 µM (inactive) and the GI50 (UO-31) was > 100 µM (inactive). The GI50 (SK-MEL-5) was > 100 µM (inactive), the GI50 (SF-295) was > 100 µM (inactive) and the GI50 (MDA-N) was > 100 µM (inactive). For the same compound, the GI50 (HT-29) was > 100 µM (inactive), the GI50 (NCI-H23) was > 100 µM (inactive) and the GI50 (TK-10) was > 100 µM (inactive). For the same compound, the GI50 (ACHN) was > 100 µM (inactive), the GI50 (KM12) was > 100 µM (inactive) and the GI50 (COLO 205) was > 100 µM (inactive). The GI50 (LOX IMVI) was > 100 µM (inactive), the GI50 (MDA-MB-231) was > 100 µM (inactive) and the GI50 (RPMI-8226) was > 100 µM (inactive). The GI50 (RXF 393) was > 100 µM (inactive), the GI50 (SF-539) was > 100 µM (inactive) and the GI50 (HOP-92) was > 100 µM (inactive). The GI50 (HL-60) was > 100 µM (inactive), the GI50 (786-0) was > 100 µM (inactive) and the GI50 (NCI-H226) was > 100 µM (inactive). For the same compound, the GI50 (HCC 2998) was > 100 µM (inactive), the GI50 (A549) was > 100 µM (inactive) and the GI50 (HCT-15) was greater than 100 µM. The GI50 (SNB-75) was > 100 µM (inactive), the GI50 (K562) was > 100 µM (inactive) and the GI50 (SW-620) was > 100 µM (inactive). The GI50 (SNB-19) was > 100 µM (inactive), the GI50 (NCI/ADR-RES) was > 100 µM (inactive) and the GI50 (SK-MEL-2) was > 100 µM (inactive). For the same compound, the GI50 (OVCAR-5) was > 100 µM (inactive), the GI50 (OVCAR-8) was > 100 µM (inactive) and the GI50 (MDA-MB-435) was > 100 µM (inactive). For the same compound, the GI50 (Malme-3M) was > 100 µM (inactive), the GI50 (NCI-H522) was > 100 µM (inactive) and the GI50 (M14) was > 100 µM (inactive). The GI50 (Hs-578T) was > 100 µM (inactive), the GI50 (MOLT-4) was > 100 µM (inactive) and the GI50 (CAKI-1) was > 100 µM (inactive). For the same compound, the GI50 (SR) was > 100 µM (inactive), the GI50 (A498) was > 100 µM (inactive) and the GI50 (SF-268) was > 100 µM (inactive). The GI50 (SN12C) was > 100 µM (inactive), the GI50 (U-251) was > 100 µM (inactive) and the GI50 (T47D) was > 100 µM (inactive). The GI50 (EKVX) was > 100 µM (inactive), the GI50 (OVCAR-3) was > 100 µM (inactive) and the GI50 (UACC-62) was > 100 µM (inactive). The GI50 (NCI-H460) was > 100 µM (inactive), the GI50 (OVCAR-4) was > 100 µM (inactive) and the GI50 (DU-145) was > 100 µM (inactive). For the same compound, the GI50 (SK-MEL-28) was > 100 µM (inactive).

In the case of `Fc1ccc(C2(CCCN3CCc4[nH]c5cc(F)ccc5c4C3)OCCO2)cc1`, the GI50 (SK-OV-3) is reported as 13.8 µM (inactive), the GI50 (UACC-257) is reported as 4.71 µM (inactive) and the GI50 (IGROV-1) is reported as 20.1 µM (inactive). The GI50 (HCT-116) was 11.5 µM (inactive), the GI50 (CCRF-CEM) was 11.8 µM (inactive) and the GI50 (UO-31) was 3.33 µM (inactive). For the same compound, the GI50 (SK-MEL-5) was 10.9 µM (inactive), the GI50 (SF-295) was 13.9 µM (inactive) and the GI50 (HT-29) was 3.81 µM (inactive). The GI50 (NCI-H23) was 16.2 µM (inactive), the GI50 (TK-10) was 14.8 µM (inactive) and the GI50 (ACHN) was 11.4 µM (inactive). For the same compound, the GI50 (KM12) was 13.3 µM (inactive), the GI50 (COLO 205) was 8.75 µM (inactive) and the GI50 (LOX IMVI) was 12.6 µM (inactive). The GI50 (MDA-MB-231) was 18.7 µM (inactive), the GI50 (RPMI-8226) was 10.7 µM (inactive) and the GI50 (MCF7) was 10.6 µM (inactive). For the same compound, the GI50 (RXF 393) was 13.5 µM (inactive), the GI50 (HOP-62) was 13 µM (inactive) and the GI50 (SF-539) was 12 µM (inactive). The GI50 (HOP-92) was 2.99 µM (inactive), the GI50 (HL-60) was 10.5 µM (inactive) and the GI50 (786-0) was 13.9 µM (inactive). The GI50 (NCI-H226) was 19 µM (inactive), the GI50 (HCC 2998) was 2.13 µM (inactive) and the GI50 (A549) was 14.7 µM (inactive). The GI50 (HCT-15) was 16.4 µM, the GI50 (SNB-75) was 12.1 µM (inactive) and the GI50 (K562) was 4.18 µM (inactive). The GI50 (SW-620) was 14.3 µM (inactive), the GI50 (SNB-19) was 11.1 µM (inactive) and the GI50 (NCI/ADR-RES) was 20.7 µM (inactive). For the same compound, the GI50 (OVCAR-5) was 2.89 µM (inactive), the GI50 (OVCAR-8) was 17.7 µM (inactive) and the GI50 (MDA-MB-435) was 13.5 µM (inactive). The GI50 (Malme-3M) was 12.3 µM (inactive), the GI50 (M14) was 2.53 µM (inactive) and the GI50 (Hs-578T) was 3.92 µM (inactive). The GI50 (MOLT-4) was 6.67 µM (inactive), the GI50 (SR) was 7.52 µM (inactive) and the GI50 (A498) was 14.3 µM (inactive). For the same compound, the GI50 (SF-268) was 15.3 µM (inactive), the GI50 (SN12C) was 16.7 µM (inactive) and the GI50 (U-251) was 11.9 µM (inactive). The GI50 (T47D) was 13.5 µM (inactive), the GI50 (EKVX) was 15.3 µM (inactive) and the GI50 (UACC-62) was 13.7 µM (inactive). For the same compound, the GI50 (NCI-H460) was 10.4 µM (inactive), the GI50 (OVCAR-4) was 13.3 µM (inactive) and the GI50 (DU-145) was 14.7 µM (inactive). The GI50 (SK-MEL-28) was 12.6 µM (inactive).
